In article PMC11881906, “Development of xanthone derivatives as effective broad-spectrum antimicrobials: Disrupting cell wall and inhibiting DNA synthesis” (Science Advances, 2025):
Converted amounts (≈) assume the structure as drawn.

What was measured:
S. aureus ATCC 29213 [1] = experiment: Serial passage resistance induction; format: cell-based, Staphylococcus aureus; conditions: 20-day passages at 0.5× MIC
Description: (§1) The bacteria were grown in a medium containing 0.5× MIC of each compound to prepare the bacterial suspension for the next MIC determination. The MICs were then recorded after incubation at 37°C for 24 hours. Daily passages were continued until the initial MIC increased by more than fourfold. The stability of acquired resistance was investigated by MIC determination and repeated for 20 days.

P. aeruginosa ATCC 9027 [2] = experiment: Serial passage resistance induction; format: cell-based, Pseudomonas aeruginosa; conditions: 20-day passages at 0.5× MIC
Description: as §1

LPS = experiment: Fluorescence-based binding assay; conditions: compound 1× MIC; LPS 0 to 2.5 μg/ml
Description: Changes in the fluorescence emission spectrum or intensity were assessed for compound XT17 with and without the presence of targeted proteins. The fluorescent properties of compound XT17 (excitation wavelength of 350 nm and emission wavelength of 440 nm) were measured using a fluorescent plate reader upon binding to the targets. […] The changes in the emission from a constant concentration of fluorescent compound were monitored after adding increasing concentrations of LTA or LPS. All measurements were repeated three times with duplicates each time.

LTA = experiment: Fluorescence-based binding assay; conditions: compound 1× MIC; LTA 0 to 2.5 μg/ml
Description: Changes in the fluorescence emission spectrum or intensity were assessed for compound XT17 with and without the presence of targeted proteins. The fluorescent properties of compound XT17 (excitation wavelength of 350 nm and emission wavelength of 440 nm) were measured using a fluorescent plate reader upon binding to the targets. LTA-targeted protein concentrations ranged from 0.2 to 6.25 μg/ml, while LPS concentrations ranged from 0.78 to 25 μg/ml. The changes in the emission from a constant concentration of fluorescent compound were monitored after adding increasing concentrations of LTA or LPS. All measurements were repeated three times with duplicates each time.

P. aeruginosa ATCC 9027 [3] = experiment: Time-kill kinetic assay; format: cell-based, Pseudomonas aeruginosa; conditions: 5× MIC
Description: The bacterial cultures were standardized to obtain an initial density that ranged from 10^5 to 10^6 cells/ml. The cultures were incubated in a shaking bath at 37°C. Viable counts were determined at 0-, 0.5-, 1.0-, 2.0-, 4.0-, 8.0-, and 24-hour intervals by spotting 10-μl aliquots of serially 10-fold diluted cultures onto Mueller-Hinton agar (MHA) plates. After incubation at 37°C for 24 hours, the bactericidal activity, defined as the ability to reduce the initial inoculum by 3 log10 CFU/ml, was examined for each tested concentration over time. All measurements were repeated three times with duplicates each time.

A. baumannii R2889 = experiment: MIC, broth microdilution; format: cell-based; conditions: Acinetobacter baumannii, 24-hour incubation, MHB
Description: (§2) MIC was determined using the broth microdilution method in accordance with Clinical and Laboratory Standards Institute guidelines. All compounds were dissolved in dimethyl sulfoxide (DMSO; final DMSO concentration of less than 0.5%) and sterile double-distilled water and then diluted with Mueller-Hinton broth (MHB). Each compound’s stock solution was serially twofold diluted, resulting in concentrations ranging from 0.39 to 100 μg/ml, and thereafter added to sterile 96-well plates. All bacterial cell suspensions were adjusted in MHB to attain a starting inoculum of 1 × 10^6 cells/ml. A total of 100 μl volume of the bacterial suspension was then added to each well. Following a 24-hour incubation at 37°C, the optical density at 600 nm (OD600) was confirmed by measuring absorbance at 600 nm with a BioTek microplate reader. […] All measurements were repeated three times with duplicates each time.

MRSA N315 = experiment: MIC, broth microdilution; format: cell-based; conditions: Staphylococcus aureus, 24-hour incubation, MHB, read-out: MIC90 MRSA N315
Description: as §2

S. aureus ATCC 29213 [4] = experiment: MIC, broth microdilution; format: cell-based; conditions: Staphylococcus aureus, ATCC29213, 24 h, 24-hour incubation, MHB; read-out: MIC90 S. aureus ATCC 29213
Description: as §2

A. baumannii ATCC 17978 = experiment: MIC, broth microdilution; format: cell-based; conditions: Acinetobacter baumannii, ATCC17978; 24-hour incubation, MHB
Description: as §2

P. aeruginosa ATCC 9027 [5] = experiment: MIC, broth microdilution; format: cell-based; conditions: Pseudomonas aeruginosa, ATCC9027; 24-hour incubation, MHB
Description: as §2

K. pneumonia ATCC 14581 = experiment: MIC, broth microdilution; format: cell-based; conditions: Klebsiella pneumoniae, ATCC14581; 24-hour incubation, MHB
Description: as §2

K. pneumonia ATCC 10031 = experiment: MIC, broth microdilution; format: cell-based; conditions: Klebsiella pneumoniae, ATCC10031; 24-hour incubation, MHB
Description: as §2

MRSA NCTC 10442 = experiment: MIC, broth microdilution; format: cell-based; conditions: Staphylococcus aureus; 24-hour incubation, MHB; read-out: MIC90 MRSA NCTC 10442
Description: as §2

S. aureus ATCC 29213 [6] = experiment: Murine corneal infection model; format: in vivo, mice; conditions: topical, four times daily for 3 days; XT17 5 mg/ml, vancomycin 50 mg/ml; vs 5% glucose control
Text: (§3) Female C57BL/6 mice (average weight, 20 g) were used for the in vivo efficacy experiments. Mice were housed in a specific pathogen–free facility on a 12-hour light-dark cycle, under the condition with ad libitum access to irradiation sterilized rodent diet and aseptic water. […]. These in vivo experiments were approved by the Experimental Animal Center of South China Agricultural University and conducted in accordance with the policies of the Ministry of Health of China.
(§4) The in vivo efficacy of compound XT17 was investigated in a murine corneal infection model. Before infection, the mice were immunosuppressed with three intraperitoneal injections of cyclophosphamide (100 mg/kg) over 5 days. After anesthesia with 2.5% avertin (500 mg/kg, ip), the left corneas of mice were scratched with 15 μl of S. aureus ATCC 29213 or P. aeruginosa ATCC 9027 (approximately 5 × 10^7 CFU/ml). Following 1 day of infection, the infected mice were randomly assigned into […] (n = 5) and subsequently administered with 0.5% compound XT17, 5% glucose solution, 5% vancomycin, or 0.3% gatifloxacin topically. S. aureus–caused murine corneal infections were treated four times a day for three consecutive days. Only 2 days of treatment were given for P. aeruginosa–caused murine corneal infections. On the first day, the drug was administered every 20 min for 1 hour and then three times at 2-hour intervals on the second day. The mice were given a 5% glucose solution as a negative control in the absence of any antimicrobial agent treatment. The infected corneas were collected after the mice were euthanized, and the number of viable bacteria was counted using MHA plates.

P. aeruginosa ATCC 9027 [7] = experiment: Murine corneal infection model; format: in vivo, mice; conditions: topical, 2 days; XT17 5 mg/ml, gatifloxacin 3 mg/ml; vs 5% glucose control
Text: as §3, §4

In the case of `CC(C)=CCOc1cc(OCCCNC(=N)N)cc2oc3cc(OCCCNC(=N)N)ccc3c(=O)c12` [XT17], the “increase in MIC values during passages” value (S. aureus ATCC 29213 [1]) is reported as “no more than fourfold increase”, the “increase in MIC values during passages” value (P. aeruginosa ATCC 9027 [2]) is reported as “no more than fourfold increase” and the “fluorescence emission of compound upon binding to LPS” value (LPS) is reported as “decreased in a concentration-dependent manner”. The “fluorescence emission of compound upon binding to LTA” value (LTA) was “decreased in a concentration-dependent manner”, the “log bacterial load reduction” value (P. aeruginosa ATCC 9027 [3]; 1 hour) was 3.24 log and the bacterial regrowth (P. aeruginosa ATCC 9027 [3]; at 24 hours) was “no bacterial regrowth was observed”. For the same compound, the MIC90 (A. baumannii R2889) was 50 µg/mL (≈ 97.9 µM), the MIC90 (MRSA N315) was 0.39 µg/mL (≈ 0.764 µM) and the MIC90 (S. aureus ATCC 29213 [4]) was 0.39 µg/mL (≈ 0.764 µM). It also gave an MIC90 (A. baumannii ATCC 17978) of 25 µg/mL (≈ 49 µM), an MIC90 (P. aeruginosa ATCC 9027 [5]) of 3.12 µg/mL (≈ 6.12 µM) and an MIC90 (K. pneumonia ATCC 14581) of 12.5 µg/mL (≈ 24.5 µM). The MIC90 (K. pneumonia ATCC 10031) was 6.25 µg/mL (≈ 12.2 µM), the MIC90 (MRSA NCTC 10442) was 0.39 µg/mL (≈ 0.764 µM) and the “log reduction in viable bacterial colonies in the infected corneas” value (S. aureus ATCC 29213 [6]) was 6.10 log. For the same compound, the “log reduction in viable bacterial colonies in the infected corneas” value (P. aeruginosa ATCC 9027 [7]) was 2.88 log.
